Data from patent EP4667467A1, “PROTAC DEGRADERS OF MLLT1 AND/OR MLLT3” (Dark Blue Therapeutics Ltd, priority 2024, dated 2025).

Target: T1, MLLT1 (Homo sapiens, UniProt Q03111)
T1 construct: endogenous in cells; host or cells: MV4-11 (ATCC CRL-9591)
T1 sequence (Q03111 1-559): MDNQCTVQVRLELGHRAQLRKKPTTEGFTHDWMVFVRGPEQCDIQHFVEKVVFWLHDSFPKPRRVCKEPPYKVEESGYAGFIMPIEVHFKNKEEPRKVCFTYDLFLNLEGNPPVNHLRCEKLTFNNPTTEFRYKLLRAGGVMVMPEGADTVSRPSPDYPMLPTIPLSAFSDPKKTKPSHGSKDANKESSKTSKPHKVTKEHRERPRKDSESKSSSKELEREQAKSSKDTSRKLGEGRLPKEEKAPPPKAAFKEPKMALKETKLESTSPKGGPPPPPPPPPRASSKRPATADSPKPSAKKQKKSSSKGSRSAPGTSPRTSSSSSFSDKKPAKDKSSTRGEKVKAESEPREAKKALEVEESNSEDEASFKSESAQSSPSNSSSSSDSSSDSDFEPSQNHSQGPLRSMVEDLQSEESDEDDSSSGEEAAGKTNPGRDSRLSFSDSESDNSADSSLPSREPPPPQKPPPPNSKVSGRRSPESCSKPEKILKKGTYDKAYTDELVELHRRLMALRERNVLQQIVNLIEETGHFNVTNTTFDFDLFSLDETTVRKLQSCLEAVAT
Assay: MLLT1 Degradation Assay (JESS automated chemiluminescent detection, MV4-11 cells)
Type: cell-based
Conditions: 24h, with respect to DMSO control; for MLLT1 % Degradation @ 0.01 µM: 0.01 µM (10 nM) test compound; for MLLT1 % Degradation @ 0.1 µM: 0.1 µM (100 nM) test compound; for MLLT 1 % Degradation @ 1 µM: 1 µM (1000 nM) test compound
Description: MLLT1 degradation efficacy of compounds were tested in an automated chemiluminescent detection system (JESS, Cat# 004-650). […] 10 mM DMSO stocks were prepared, and cells were treated with three concentrations of test compounds viz. 1000, 100 and 10 nM at a final DMSO concentration of 0.1% and incubated for 24h at 37°C, 5% CO2. […] Post run, data were analysed using "Compass for SW" software for chemiluminescent detection. The peak area for each band was used for the calculation of MLLT1 degradation with respect to DMSO control. Data is shown as "MLLT1 % degradation".

Row | Compound | MLLT1 % Degradation @ 0.01 µM | MLLT1 % Degradation @ 0.1 µM | MLLT 1 % Degradation @ 1 µM
1 | 3-(1-(3-(1-(2-(2,6-dioxopiperidin-3-yl)-1,3-dioxoisoindolin-4-yl)piperidin-4-yl)propyl)-1H-pyrazol-4-yl)-N-(2-((R)-1-methylpyrrolidin-2-yl)-1H-pyrrolo[3,2-c]pyridin-6-yl)benzamide [Example 47] | C (Category C: 25% ≤ C < 50% degradation) | B (Category B: 50% ≤ B < 75% degradation) | A (Category A: A ≥ 75% degradation)
2 | CN1CCC[C@@H]1c1cc2cnc(NC(=O)c3ccc(-c4ccn(CCCC#Cc5cccc6c5CN(C5CCC(=O)NC5=O)C6=O)n4)cc3)cc2[nH]1 (mixture of isomers) [Example 20, 4-(1-(5-(2-(2,6-dioxopiperidin-3-yl)-1-oxoisoindolin-4-yl)pent-4-yn-1-yl)-1H-pyrazol-3-yl)-N-(2-((R)-1-methylpyrrolidin-2-yl)-1H-pyrrolo[3,2-c]pyridin-6-yl)benzamide] | B (Category B: 50% ≤ B < 75% degradation) | B (Category B: 50% ≤ B < 75% degradation) | C (Category C: 25% ≤ C < 50% degradation)
3 | CN1CCC[C@@H]1c1cc2cnc(NC(=O)N3CCC(CCC#Cc4cccc5c4CN(C4CCC(=O)NC4=O)C5=O)CC3)cc2[nH]1 (stereo partly drawn) [Example 1, 4-(4-(2-(2,6-dioxopiperidin-3-yl)-1-oxoisoindolin-4-yl)but-3-yn-1-yl)-N-(2-((R)-1-methylpyrrolidin-2-yl)-1H-pyrrolo[3,2-c]pyridin-6-yl)piperidine-1-carboxamide] | C (Category C: 25% ≤ C < 50% degradation) | C (Category C: 25% ≤ C < 50% degradation) | C (Category C: 25% ≤ C < 50% degradation)
4 | CN1CCC[C@@H]1c1cc2cnc(NC(=O)c3ccc(OCC#Cc4cccc5c4CN(C4CCC(=O)NC4=O)C5=O)nc3)cc2[nH]1 (stereo partly drawn) [Example 2, 6-((3-(2-(2,6-dioxopiperidin-3-yl)-1-oxoisoindolin-4-yl)prop-2-yn-1-yl)oxy)-N-(2-((R)-1-methylpyrrolidin-2-yl)-1H-pyrrolo[3,2-c]pyridin-6-yl)nicotinamide] | A (Category A: A ≥ 75% degradation) | A (Category A: A ≥ 75% degradation) | A (Category A: A ≥ 75% degradation)
5 | CN1CCC[C@@H]1c1cc2cnc(NC(=O)c3ccc(CC4CCN(c5cccc6c5C(=O)N(C5CCC(=O)NC5=O)C6=O)CC4)cc3)cc2[nH]1 (stereo partly drawn) [Example 3, 4-((1-(2-(2,6-dioxopiperidin-3-yl)-1,3-dioxoisoindolin-4-yl)piperidin-4-yl)methyl)-N-(2-((R)-1-methylpyrrolidin-2-yl)-1H-pyrrolo[3,2-c]pyridin-6-yl)benzamide] | C (Category C: 25% ≤ C < 50% degradation) | A (Category A: A ≥ 75% degradation) | A (Category A: A ≥ 75% degradation)
6 | CN1CCC[C@@H]1c1cc2cnc(NC(=O)c3ccc(CCC4CCN(c5cccc6c5C(=O)N(C5CCC(=O)NC5=O)C6=O)CC4)cc3)cc2[nH]1 (stereo partly drawn) [Example 4, 4-(2-(1-(2-(2,6-dioxopiperidin-3-yl)-1,3-dioxoisoindolin-4-yl)piperidin-4-yl)ethyl)-N-(2-((R)-1-methylpyrrolidin-2-yl)-1H-pyrrolo[3,2-c]pyridin-6-yl)benzamide] | B (Category B: 50% ≤ B < 75% degradation) | A (Category A: A ≥ 75% degradation) | A (Category A: A ≥ 75% degradation)
7 | CN1CCC[C@@H]1c1cc2cnc(NC(=O)c3ccc(N4CCN(CC5CCN(c6cccc7c6C(=O)N(C6CCC(=O)NC6=O)C7=O)CC5)CC4)nc3)cc2[nH]1 (stereo partly drawn) [Example 5, 6-(4-((1-(2-(2,6-dioxopiperidin-3-yl)-1,3-dioxoisoindolin-4-yl)piperidin-4-yl)methyl)piperazin-1-yl)-N-(2-((R)-1-methylpyrrolidin-2-yl)-1H-pyrrolo[3,2-c]pyridin-6-yl)nicotinamide] | B (Category B: 50% ≤ B < 75% degradation) | A (Category A: A ≥ 75% degradation) | A (Category A: A ≥ 75% degradation)
8 | CN1CCC[C@@H]1c1cc2cnc(NC(=O)c3ccc(N4CCN(CC#Cc5cccc6c5CN(C5CCC(=O)NC5=O)C6=O)CC4)nc3)cc2[nH]1 (stereo partly drawn) [Example 6, 6-(4-(3-(2-(2,6-dioxopiperidin-3-yl)-1-oxoisoindolin-4-yl)prop-2-yn-1-yl)piperazin-1-yl)-N-(2-((R)-1-methylpyrrolidin-2-yl)-1H-pyrrolo[3,2-c]pyridin-6-yl)nicotinamide] | A (Category A: A ≥ 75% degradation) | A (Category A: A ≥ 75% degradation) | B (Category B: 50% ≤ B < 75% degradation)
9 | CN1CCC[C@@H]1c1cc2cnc(NC(=O)c3ccc(CCCCC#Cc4cccc(C(=O)N[C@H]5CCC(=O)NC5=O)n4)cc3)cc2[nH]1 [Example 7, N-((S)-2,6-dioxopiperidin-3-yl)-6-(6-(4-((2-((R)-1-methylpyrrolidin-2-yl)-1H-pyrrolo[3,2-c]pyridin-6-yl)carbamoyl)phenyl)hex-1-yn-1-yl)picolinamide] | A (Category A: A ≥ 75% degradation) | A (Category A: A ≥ 75% degradation) | A (Category A: A ≥ 75% degradation)
10 | CN1CCC[C@@H]1c1cc2cnc(NC(=O)c3ccc(CCCCC#Cc4cccc5c4CN(C4CCC(=O)NC4=O)C5=O)cc3)cc2[nH]1 (stereo partly drawn) [Example 8, 4-(6-(2-(2,6-dioxopiperidin-3-yl)-1-oxoisoindolin-4-yl)hex-5-yn-1-yl)-N-(2-((R)-1-methylpyrrolidin-2-yl)-1H-pyrrolo[3,2-c]pyridin-6-yl)benzamide] | A (Category A: A ≥ 75% degradation) | A (Category A: A ≥ 75% degradation) | A (Category A: A ≥ 75% degradation)
11 | CN1CCC[C@@H]1c1cc2cnc(NC(=O)c3ccc(CCCCC#Cc4cccc(N5CCC(=O)NC5=O)n4)cc3)cc2[nH]1 [Example 9, (R)-4-(6-(6-(2,4-dioxotetrahydropyrimidin-1(2H)-yl)pyridin-2-yl)hex-5-yn-1-yl)-N-(2-(1-methylpyrrolidin-2-yl)-1H-pyrrolo[3,2-c]pyridin-6-yl)benzamide] | A (Category A: A ≥ 75% degradation) | A (Category A: A ≥ 75% degradation) | A (Category A: A ≥ 75% degradation)
12 | CN1CCC[C@@H]1c1cc2cnc(NC(=O)c3ccc(CCCCC#Cc4cccc5c4CN(C4CCC(=O)NC4=O)C5=O)nc3)cc2[nH]1 (stereo partly drawn) [Example 10, 6-(6-(2-(2,6-dioxopiperidin-3-yl)-1-oxoisoindolin-4-yl)hex-5-yn-1-yl)-N-(2-((R)-1-methylpyrrolidin-2-yl)-1H-pyrrolo [3,2-c]pyridin-6-yl) nicotinamide] | A (Category A: A ≥ 75% degradation) | A (Category A: A ≥ 75% degradation) | B (Category B: 50% ≤ B < 75% degradation)
13 | CN1CCC[C@@H]1c1cc2cnc(NC(=O)c3ccc(CCCC#Cc4ccc(C(=O)N[C@H]5CCC(=O)NC5=O)nc4)cc3)cc2[nH]1 [Example 11, N-((S)-2,6-dioxopiperidin-3-yl)-5-(5-(4-((2-((R)-1-methylpyrrolidin-2-yl)-1H-pyrrolo[3,2-c]pyridin-6-yl)carbamoyl)phenyl)pent-1-yn-1-yl)picolinamide] | D (Category D: D < 25% degradation) | C (Category C: 25% ≤ C < 50% degradation) | B (Category B: 50% ≤ B < 75% degradation)
14 | CN1CCC[C@@H]1c1cc2cnc(NC(=O)c3ccc(CCCC#Cc4cccc5c4CN(C4CCC(=O)NC4=O)C5=O)nc3)cc2[nH]1 (stereo partly drawn) [Example 12, 6-(5-(2-(2,6-dioxopiperidin-3-yl)-1-oxoisoindolin-4-yl)pent-4-yn-1-yl)-N-(2-((R)-1-methylpyrrolidin-2-yl)-1H-pyrrolo[3,2-c]pyridin-6-yl)nicotinamide] | B (Category B: 50% ≤ B < 75% degradation) | A (Category A: A ≥ 75% degradation) | A (Category A: A ≥ 75% degradation)
15 | CN1CCC[C@@H]1c1[nH]c2cc(NC(=O)CCCCCCC#Cc3cccc4c3CN(C3CCC(=O)NC3=O)C4=O)ncc2c1Cl (stereo partly drawn) [Example 13, N-(3-chloro-2-((R)-1-methylpyrrolidin-2-yl)-1H-pyrrolo [3,2-c]pyridin-6-yl)-9-(2-(2,6-dioxopiperidin-3-yl)-1-oxoisoindolin-4-yl) non-8-ynamide] | A (Category A: A ≥ 75% degradation) | A (Category A: A ≥ 75% degradation) | A (Category A: A ≥ 75% degradation)
